From US12564191B2, “Pesticidal compounds” (priority 2020, dated 2026)

Key:
Assay type in all cases: in vivo
[1] = system: Yellow fever mosquito (Aedes aegypti); test: whole plant or invertebrate; settings: 48 h, freshly hatched larvae in tap water, assessed after 2 days, read-out: larval mortality in comparison with untreated controls
Description: B.6. Yellow Fever Mosquito (Aedes aegypti)
For evaluating control of yellow fever mosquito (Aedes aegypti) the test unit consisted of 96-well-microtiter plates containing 200 μl of tap water per well and 5-15 freshly hatched A. aegypti larvae. The active compounds were formulated using a solution containing 75% (v/v) water and 25% (v/v) DMSO. Different concentrations of formulated compounds or mixtures were sprayed onto the insect diet at 2.5 μl, using a custom built micro atomizer, at two replications.
After application, microtiter plates were incubated at 28+1° C., 80+5% RH for 2 days. Larval mortality was then visually assessed.

[2] = system: Tobacco budworm (Heliothis virescens); test: Tobacco budworm (Heliothis virescens) microtiter diet test, egg and larval mortality; settings: 120 h, sprayed onto insect diet, assessed after 5 days, read-out: egg and larval mortality in comparison with untreated controls
Description: B.5. Tobacco Budworm (Heliothis virescens)
For evaluating control of tobacco budworm (Heliothis virescens) the test unit consisted of 96-well-microtiter plates containing an insect diet and 15-25 H. virescens eggs.
The compounds were formulated using a solution containing 75% v/v water and 25% v/v DMSO. Different concentrations of formulated compounds were sprayed onto the insect diet at 10 μl, using a custom built micro atomizer, at two replications.
After application, microtiter plates were incubated at about 28±1° C. and about 80±5% relative humidity for 5 days. Egg and larval mortality was then visually assessed.

[3] = system: Southern Armyworm (Spodoptera eridania), 2nd Instar Larvae; test: Southern armyworm 2nd instar larvae on sprayed lima bean plants; settings: 96 h, 4 days after treatment, read-out: mortality in comparison with untreated controls
Description: B.4. Southern Armyworm (Spodoptera eridania), 2nd Instar Larvae
(§1) The active compounds were formulated in cyclohexanone as a 10,000 ppm solution supplied in tubes. The tubes were inserted into an automated electrostatic sprayer equipped with an atomizing nozzle and they served as stock solutions for which lower dilutions were made in 50% acetone:50% water (v/v). A nonionic surfactant (Kinetic®) was included in the solution at a volume of 0.01% (v/v).
Lima bean plants (variety Sieva) were grown 2 plants to a pot and selected for treatment at the 1st true leaf stage. Test solutions were sprayed onto the foliage by an automated electrostatic plant sprayer equipped with an atomizing spray nozzle. The plants were dried in the sprayer fume hood and then removed from the sprayer. Each pot was placed into perforated plastic bags with a zip closure. About 10 to 11 armyworm larvae were placed into the bag and the bags zipped closed. Test plants were maintained in a growth room at about 25° C. and about 20-40% relative humidity for 4 days, avoiding direct exposure to fluorescent light (24 hour photoperiod) to prevent trapping of heat inside the bags. Mortality and reduced feeding were assessed 4 days after treatment, compared to untreated control plants.

[4] = system: Diamond back moth (Plutella xylostella); test: Diamond back moth (Plutella xylostella) cabbage leaf dip test; settings: foliar, 3rd instar larvae, 72 hours after treatment, read-out: mortality in comparison with untreated controls
Description: B.2. Diamond Back Moth (Plutella xylostella)
The active compound is dissolved at the desired concentration in a mixture of 1:1 (vol:vol) distilled water:acetone. Surfactant (Alkamuls® EL 620) is added at a rate of 0.1% (vol/vol). The test solution is prepared at the day of use.
Leaves of cabbage were dipped in test solution and air-dried. Treated leaves were placed in petri dish enlined with moist filter paper and inoculated with ten 3rd instar larvae. Mortality was recorded 72 hours after treatment. Feeding damages were also recorded using a scale of 0-100%.

[5] = system: Western flower thrips (Frankliniella occidentalis); test: Western flower thrips (Frankliniella occidentalis) cotton leaf disc test; settings: foliar, 48 h, treated cotton leaf discs, 2 DAT, read-out: mortality in comparison with untreated controls
Description: B.9. Western Flower Thrips (Frankliniella occidentalis)
The active compounds were formulated by a Tecan liquid handler in 100% cyclohexanone as a 10,000 ppm solution supplied in tubes. The 10,000 ppm solution was serially diluted in 100% cyclohexanone to make interim solutions. These served as stock solutions for which final dilutions were made by the Tecan in 50% acetone:50% water (v/v) into 10 or 20 ml glass vials. A nonionic surfactant (Kinetic®) was included in the solution at a volume of 0.01% (v/v). The vials were then inserted into an automated electrostatic sprayer equipped with an atomizing nozzle for application to plants/insects.
Small (˜2″ in height) cotton plants are sprayed with test compounds at concentrations ranging from 300 to 0.01 ppm in acetone/water through the automated VPS. After drying, cotton leaves are removed and circular leaf discs (˜1 cm diameter) are punched from the treated surface and transferred to clean 20 mL scintillation vials. Ten Western flower thrips (FRANOC) are aspirated into each scintillation vial. The vials with the leaf discs and thrips are kept in an upright incubator at 25° C. and 50% relative humidity with a 14:10 light:dark photoperiod. Each treatment is replicated twice.
Thrips mortality is assessed at 2 DAT (days after treatment), counting all thrips both dead and alive. [The average absolute mortality is calculated for each treatment.]

[6] = system: Orchid thrips (Dichromothrips corbetti); test: Orchid thrips (Dichromothrips corbetti) floral-immersion test; settings: adult thrips, 72 hours after treatment, read-out: mortality in comparison with untreated controls
Description: B.7. Orchid Thrips (Dichromothrips corbetti)
Dichromothrips corbetti adults used for bioassay were obtained from a colony maintained continuously under laboratory conditions. For testing purposes, the test compound is diluted in a 1:1 mixture of acetone:water (vol:vol), plus Kinetic® HV at a rate of 0.01% v/v.
Thrips potency of each compound was evaluated by using a floral-immersion technique. All petals of individual, intact orchid flowers were dipped into treatment solution and allowed to dry in Petri dishes. Treated petals were placed into individual re-sealable plastic along with about 20 adult thrips. All test arenas were held under continuous light and a temperature of about 28° C. for duration of the assay. After 3 days, the numbers of live thrips were counted on each petal. The percent mortality was recorded 72 hours after treatment.

[7] = system: Silverleaf Whitefly (Bemisia argentifolih) (Adults); test: Silverleaf whitefly adults on sprayed cotton plants; settings: 300 ppm, 3 days after treatment
Description: B.3 Silverleaf Whitefly (Bemisia argentifolih) (Adults)
as §1, with “non-ionic” for “nonionic”
Cotton plants at the cotyledon stage (one plant per pot) were sprayed by an automated electrostatic plant sprayer equipped with an atomizing spray nozzle. The plants were dried in the sprayer fume hood and then removed from the sprayer. Each pot was placed into a plastic cup and about 10 to 12 whitefly adults (approximately 3-5 days old) were introduced. The insects were collected using an aspirator and a nontoxic Tygon® tubing connected to a barrier pipette tip. The tip, containing the collected insects, was then gently inserted into the soil containing the treated plant, allowing insects to crawl out of the tip to reach the foliage for feeding. Cups were covered with a reusable screened lid. […] Mortality was assessed 3 days after treatment, compared to untreated control plants.

`Cc1ccc(C(C)C)c(N2C(=O)CS/C2=N\N=C\c2ccc(-c3nccc(NC(=O)c4ccc(C(F)(F)F)cc4)n3)cc2)c1` [Example C-5, N-[2-[4-[(E)-[(Z)-[3-(2-isopropyl-5-methyl-phenyl)-4-oxo-thiazolidin-2-ylidene]hydrazono]methyl]phenyl]pyrimidin-4-yl]-4-(trifluoromethyl)benzamide] showed a mortality at 2500 ppm [1] greater than 75% and a mortality at 2500 ppm [2] greater than 75%.

`CC(C)c1ccccc1/N=C1\SCC(=O)N1/N=C/c1ccc(-c2cc(NC(=O)c3ccc(OC(F)(F)F)cc3)ncn2)cc1` [Example C-12, N-[6-[4-[(E)-[(2Z)-2-(2-isopropylphenyl)imino-4-oxo-thiazolidin-3-yl]iminomethyl]phenyl]pyrimidin-4-yl]-4-(trifluoromethoxy)benzamide] gave a mortality at 500 ppm [3] greater than 75%, a mortality at 500 ppm [4] greater than 75% and a mortality at 2500 ppm [2] greater than 75%. The mortality at 300 ppm [5] was greater than 75% and the mortality at 500 ppm [6] was greater than 75%.

`CO[C@@H]1[C@@H](OC)[C@H](C)O[C@@H](O/N=C/c2ccc(-c3cc(NC(=O)c4ccc(OC(F)(F)F)cc4)ncn3)cc2)[C@@H]1OC` [Example C-13, 4-(trifluoromethoxy)-N-[6-[4-[(E)-[(2S,3R,4R,5S,6S)-3,4,5-trimethoxy-6-methyl-tetrahydropyran-2-yl]oxyiminomethyl]phenyl]pyrimidin-4-yl]benzamide] was tested, and the mortality at 2500 ppm [2] was greater than 75%.

With `CC(C)c1ccccc1NC(=S)NN=Cc1ccc(-c2cc(C(=N)Nc3ccc(OC(F)(F)F)cc3)ncn2)cc1` [Example C-25] the “mortality in comparison with untreated controls” value [7] was “over 75%”.
